Tests used:
[1] = Conversion of Val-Pro-PI 1 to PI 1 by human serum diluted in PBS; type: in vitro ADME; details: 2% human serum (HS) in PBS
Description: (§1) A: CD26; B: bovine serum; C: human serum (both 10% in PBS).
(§2) FIG. 3a: Bovine serum (2% in PBS), FIG. 3b: Human serum (2% in PBS).
(§3) Ten percent BS or HS converted 40 to 70% of Val-Pro-PI 1 to PI 1 in one hour (FIG. 10). Two percent BS and HS converted Val-Pro-PI 1 to PI 1 by 8% and 25%, respectively. After 4 hrs, 35% and 95% of compound was hydrolyzed by BS and HS, respectively (FIG. 11).
(§4) Compounds were separated on a Reverse Phase RP-8 (Merck) using a gradient with buffer A (50 mM NaH2PO4+5 mM heptane sulfonic acid pH 3.2) and buffer B (acetonitrile).
(§5) 0→2 min: 2% buffer B; 2→8 min: 20% buffer B; 8→10 min: 25% buffer B; 10→12 min: 35% buffer B; 12→30 min: 50% buffer B; 30→35 min: 50% buffer B; 35→40 min: 2% buffer B; 40→45 min: 2% buffer B. Rt values of Val-Pro-PI 1 and PI 1 were 18.7 and 17.7 min, respectively.

CD26 = CD26 (Homo sapiens, UniProt P27487); assay: Competitive inhibition of CD26-catalysed conversion of GP-pNA to GP+pNA (purified CD26); type: biochemical
Description: (§6) The CD26 catalytic reaction was measured by recording the increase of absorption caused by pNA release at 400 nm.

CD26 in human serum = biological target: T1, CD26 in human serum (Homo sapiens, UniProt P27487); assay: Inhibition of GP-pNA conversion to pNA by 2% human serum in PBS; type: biochemical; details: HS 2% in PBS
T1 construct: from tissue; host or cells: human serum, 2% in PBS
Description: as §6

[2] = Conversion of Val-Pro-PI 1 to PI 1 by bovine serum diluted in PBS; type: in vitro ADME; details: 2% bovine serum (BS) in PBS
Description: as §1, §2, §3, §4, §5

purified CD26 = purified CD26 (Homo sapiens, UniProt P27487); assay: Conversion of Val-Pro-PI 1 to PI 1 by purified CD26; type: biochemical
Description: as §1, §3, §4, §5

CD26 in bovine serum = biological target: T2, CD26 in bovine serum (Bos taurus, UniProt P81425); assay: Inhibition of GP-pNA conversion to pNA by 2% bovine serum in PBS; type: biochemical; details: 2% BS in PBS, compared with purified CD26
T2 construct: Conversion of GP-pNA to pNA by two percent BS in PBS; from tissue; host or cells: bovine serum, 2% in PBS
Description: as §6

[3] = time not printed (preceding sentence: one hour)

Chain of CD26 (P27487 whole entry, species assumed): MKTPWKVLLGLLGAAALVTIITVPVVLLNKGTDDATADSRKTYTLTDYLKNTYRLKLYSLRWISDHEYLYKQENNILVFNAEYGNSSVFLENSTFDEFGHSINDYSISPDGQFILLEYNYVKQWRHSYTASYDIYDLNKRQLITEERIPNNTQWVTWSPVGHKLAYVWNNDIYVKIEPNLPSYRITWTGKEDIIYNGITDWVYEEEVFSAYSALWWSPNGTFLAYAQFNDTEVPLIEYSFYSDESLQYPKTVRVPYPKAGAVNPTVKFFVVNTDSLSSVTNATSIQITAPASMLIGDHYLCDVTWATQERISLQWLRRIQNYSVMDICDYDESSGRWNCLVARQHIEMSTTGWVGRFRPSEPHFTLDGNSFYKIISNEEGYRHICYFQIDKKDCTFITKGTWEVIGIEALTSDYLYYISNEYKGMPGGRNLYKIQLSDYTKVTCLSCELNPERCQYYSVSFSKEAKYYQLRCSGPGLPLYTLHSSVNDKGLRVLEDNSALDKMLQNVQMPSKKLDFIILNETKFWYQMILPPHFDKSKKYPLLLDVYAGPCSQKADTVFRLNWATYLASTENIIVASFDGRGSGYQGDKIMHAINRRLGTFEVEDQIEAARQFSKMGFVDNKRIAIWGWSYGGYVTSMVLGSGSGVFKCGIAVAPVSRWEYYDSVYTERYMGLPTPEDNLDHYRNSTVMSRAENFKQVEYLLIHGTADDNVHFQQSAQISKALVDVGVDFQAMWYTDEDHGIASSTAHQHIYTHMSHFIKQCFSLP
T1 sequence (P27487 39-766 limits assumed): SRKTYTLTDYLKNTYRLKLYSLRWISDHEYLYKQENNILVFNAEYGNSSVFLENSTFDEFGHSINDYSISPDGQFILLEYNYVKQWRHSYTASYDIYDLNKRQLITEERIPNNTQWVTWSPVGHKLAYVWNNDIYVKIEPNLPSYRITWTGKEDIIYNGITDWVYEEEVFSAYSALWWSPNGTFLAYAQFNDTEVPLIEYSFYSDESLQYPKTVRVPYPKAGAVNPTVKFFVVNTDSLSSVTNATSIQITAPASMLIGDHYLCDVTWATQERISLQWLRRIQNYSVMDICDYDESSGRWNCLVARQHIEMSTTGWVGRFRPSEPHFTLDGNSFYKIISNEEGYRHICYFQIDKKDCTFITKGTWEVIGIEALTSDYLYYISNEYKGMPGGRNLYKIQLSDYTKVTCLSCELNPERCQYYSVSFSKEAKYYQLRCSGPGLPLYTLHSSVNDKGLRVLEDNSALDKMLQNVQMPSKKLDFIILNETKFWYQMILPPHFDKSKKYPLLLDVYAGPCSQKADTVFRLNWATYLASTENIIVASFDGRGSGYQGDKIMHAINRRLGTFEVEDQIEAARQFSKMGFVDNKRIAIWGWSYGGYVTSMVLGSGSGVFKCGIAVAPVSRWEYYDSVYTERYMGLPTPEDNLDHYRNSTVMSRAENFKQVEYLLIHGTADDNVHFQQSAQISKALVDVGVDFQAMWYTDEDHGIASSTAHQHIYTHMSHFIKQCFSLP
Chain of purified CD26 (P27487 whole entry, species assumed): as the sequence (P27487 whole entry, species assumed) above
T2 sequence (P81425 38-765): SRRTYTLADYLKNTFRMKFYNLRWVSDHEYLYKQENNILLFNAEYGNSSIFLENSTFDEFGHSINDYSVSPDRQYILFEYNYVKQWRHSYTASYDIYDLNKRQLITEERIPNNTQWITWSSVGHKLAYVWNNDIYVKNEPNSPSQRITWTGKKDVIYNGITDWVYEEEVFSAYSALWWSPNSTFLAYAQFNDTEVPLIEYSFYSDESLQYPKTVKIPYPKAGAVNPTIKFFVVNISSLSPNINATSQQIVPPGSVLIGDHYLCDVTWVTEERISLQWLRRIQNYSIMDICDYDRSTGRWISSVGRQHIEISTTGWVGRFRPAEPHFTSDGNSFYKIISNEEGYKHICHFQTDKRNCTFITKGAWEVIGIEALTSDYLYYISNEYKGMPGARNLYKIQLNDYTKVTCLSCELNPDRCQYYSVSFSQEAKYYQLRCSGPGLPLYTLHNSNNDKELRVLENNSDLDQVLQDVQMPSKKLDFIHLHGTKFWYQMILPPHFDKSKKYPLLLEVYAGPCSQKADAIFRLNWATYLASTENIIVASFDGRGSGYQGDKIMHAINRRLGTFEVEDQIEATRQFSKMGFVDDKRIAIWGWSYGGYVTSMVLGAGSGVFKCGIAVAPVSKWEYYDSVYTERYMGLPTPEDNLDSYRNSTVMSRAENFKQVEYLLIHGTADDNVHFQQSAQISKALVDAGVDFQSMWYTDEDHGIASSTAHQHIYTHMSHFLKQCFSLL

CC(C)CN(C[C@@H](O)[C@H](Cc1ccccc1)NC(=O)O[C@H]1CO[C@H]2OCC[C@H]21)S(=O)(=O)c1ccc(CNC(=O)[C@@H]2CCCN2C(=O)[C@@H](N)C(C)C)cc1 [Val-Pro-PI 1]
compound hydrolyzed ([1]; after 4 hrs): 95% | conversion of Val-Pro-PI 1 to PI 1 [1, 3]: 25% | inhibition of release of pNA from GP-pNA (CD26; 20 μM Val-Pro-PI 1, 50 μM GP-pNA): could inhibit | competition with substrate GP-pNA for CD26 (CD26; 100 μM Val-Pro-PI 1, 50 μM GP-pNA): efficiently competed | inhibition of GP-pNA conversion to pNA (CD26 in human serum): competitively inhibited | compound hydrolyzed ([2]; after 4 hrs): 35% | conversion of Val-Pro-PI 1 to PI 1 [2, 3]: 8% | time to complete conversion of Val-Pro-PI 1 to PI 1 (purified CD26): ≤ 60 min | inhibition of conversion of GP-pNA to pNA (CD26 in bovine serum): even more efficiently inhibited

From patent US20080214648A1, “Hiv Prodrugs Cleavable by Cd26” (priority 2003, published 2008)
